# Source: patent US9255272B2, “Use of inhibitors of leukotriene B4 receptor BLT2 for treating asthma” (Korea University Research & Business Foundation, priority 2007, dated 2016)
# Assays:
# [1] = test system: acute lung injury induced by endotoxin; details: pigs, cited from earlier work
# Rac = experiment: Endogenous Rac expression in lung tissue (Western blot); format: in vivo, mouse; details: oligonucleotides injected into tail veins, mice sacrificed after 12 hr
# Source text: FIGS. 10a and 10b show activation of Rac in the lung tissue by OVA provocation and inhibition of endogenous Rac expression by antisense Rac oligonucleotide treatment. Lung samples were homogenized with micropestle and washed with PBS twice. FIG. 10a depicts Western blot analysis of Rac expression in mouse model of asthma. For membrane protein preparation, cells were suspended in Buffer A and cells were ruptured by passing through 21-G syringe. After ultracentrifugation, protein samples in pelleted membrane fraction were dissolved with buffer A containing 1% Triton X-100. FIG. 10b depicts Western blot analysis of Rac expression in mouse model of asthma administered with asRac. For whole cell lysate preparation, cells from the lung tissues of buffer, control Rac oligonucleotide or antisense Rac oligonucleotide injected mice were suspended with lysis buffer and incubated for 20 min. After centrifugation of the samples, protein quantification was carried out using Bradford reagent and Western blot analysis was performed.
# Oligonucleotides, from Genotech Co. (Korea), were synthesized with a phosphorothioate backbone to improve the resistance to endonuclease. The antisense oligonucleotide consisted of 17 nucleotides analogues to the 5′ end of the murine Rac mRNA sequence, which spans the translation initiation site. […]
Compound,activation of neutrophils ([1]; endotoxin),acute lung injury induced by endotoxin [1],endogenous expression of Rac in the lung tissues (Rac)
"CCc1cc(C(C)=O)c(O)cc1OCCCCCC(C)(C)c1nnn[nH]1 [LY255283, 1-[5-ethyl-2-hydroxy-4-[[6-methyl-6-(1H-tetrazol-5-yl)heptyl]oxy]phenyl]-ethanone, reference compound]",limits activation of neutrophils,prevents acute lung injury,
"antisense Rac: phosphorothioate 17-mer to the 5′ end of murine Rac mRNA, 5′-CACTTGATGGCCTGCAT-3′ (SEQ ID NO: 22) (listed as DNA, chemistry not fully specified)",,,inhibited
